The data set can be described thus: Stability and protonation constants and pMn of Mn(II) complexes by pH-potentiometry. The format is physicochemical. As for the experimental part:
The stability and protonation constants of the metal complexes formed with H2OPC2A were determined by pH-potentiometric titrations, but, for the Cu(II) complex, UV-Vis spectrophotometric measurements were also carried out to supplement the pH-potentiometric titration data (Figures S21 and S22, Supporting Information).
The validity of the equilibrium model used for the fitting of the pH-potentiometric titration data for the Mn(II) system, was supported by ^1H relaxometric measurements, when 1/T1 and 1/T2 relaxation rates were determined as a function of pH, and their trends were compared to the species distribution curves calculated by using the equilibrium constants determined by pH-potentiometry (Table 3). The equilibrium for all metal ions can be described by considering the formation of only ([M(L)]) and monoprotonated ([M(HL)]) complexes (Table 3). However, for the Mn(II), Cu(II), and Zn(II) ions, the formation of ternary hydroxido species ([M(L)(OH)]) was also considered. A comparison of the pH-relaxation rate profiles normalized to 1 mM with the species distribution curves, confirmed that the equilibrium model applied for the fitting of pH-potentiometric titration data, satisfactorily described the Mn(II) system. […] The formation of the [Mn(3,9-OPC2A)] complex was also confirmed by analytical HPLC at pH 7.0 relying on the different retention times of the ligand and the complex (the difference is more than 2 min (Figures S20 and S23)).
The stability constants of the complexes are summarized and compared to those of the chelates formed with H21,7-DO2A, H21,4-DO2A, H23,6-PC2A, H23,9-PC2A, and H21,7-O2DO2A, in Table 3. H23,9-OPC2A forms considerably weaker complexes with all the metal ions involved in the study, than H23,9-PC2A, H23,6-PC2A, H21,7-DO2A, and H21,4-DO2A chelators. […] A similar trend in the stability constants can be observed, when the stability of the structurally related ligands is compared (H23,9-PC2A vs. H21,7-DO2A and, at a somewhat lesser extent, in the case of H23,6-PC2A vs. H21,4-DO2A ligands). […] Therefore, we have calculated the pMn values (pMn = −log(Mn(II)free) for the Mn complexes, by using the conditions proposed by É. Tóth and coworkers (cMn^2+ = cligand = 1 × 10^−5 M, T = 25 °C, pH = 7.4). As it is seen from the data presented in Table 3, the value characteristic for the [Mn(3,9-OPC2A)] complex is as high (pMn = 8.69) as it is for the [Mn(3,9-PC2A)] chelate (despite its lower stability constant), which is, in fact, the highest known value for a monoaquated macrocyclic Mn(II) complex (pMn = 8.64). This means that more than 99,97% of the total Mn(II) in the system is chelated by the H23,9-OPC2A ligand near pH = 7.4 in equilibrium.
Metal stock solutions were prepared from the highest analytical grade chemicals, and their concentrations were determined by complexometric titration with standardized Na2H2EDTA and eriochrome black T indicator in the presence of ascorbic acid, and potassium hydrogen tartrate for MnCl2, murexide indicator for CaCl2 and CuCl2, eriochrome black T for MgCl2 and xylenol orange in the presence of hexamethylenetetramine for the solution of ZnCl2. The concentration of the ligand stock solution was determined by pH-potentiometric titrations. The protonation constants of the ligand were determined by the pH potentiometric titrations with 0.15 M NaOH, using 0.0025 M ligand solutions. The ionic strength was set to 0.15 M by using NaCl. […]

Setting [1] is: Mn^2+ complex, T = 25 °C, I = 0.15 M NaCl.

Structures are written as SMILES.

Turning to `O=C(O)CN1CCOCCN(CC(=O)O)Cc2cccc(n2)C1` [H23,9-OPC2A, 6-Oxa-3,9,15-triazabicyclo(9.3.1)pentadeca-1(15),11,13-triene-3,9-diacetic acid], under setting [1], the “log KMnHL” value is 2.40(2), the “log KMnL” value is on record as 13.03(1) and the “log KMnLOH” value was 11.49(1). Besides, the “total Mn(II) chelated by the ligand in equilibrium” value (near pH = 7.4, pMn conditions) is on record as “more than 99,97%”. Moreover, the pMn (pMn = −log(Mn(II)free), cMn^2+ = cligand = 1 × 10^−5 M, T = 25 °C, pH = 7.4) was found to be 8.69.

The record behind these values is paper PMC8778187, “A New Oxygen Containing Pyclen-Type Ligand as a Manganese(II) Binder for MRI and ^52Mn PET Applications: Equilibrium, Kinetic, Relaxometric, Structural and Radiochemical Studies” (Molecules, 2022).
